Results: patent publication US12077503B2, “Substituted cyclic amides and their use as herbicides” (FMC CORPORATION, priority 2015, dated 2024)

Key:
Assay type in all cases: in vivo
[1] = system: ragweed (common ragweed, Ambrosia elatior); assay: Test A postemergence; details: Ambrosia artemisiifolia, post-emergence, 240 h; for pest or weed control at 125 g/ha: 125 g ai/ha, postemergence, visual injury vs untreated controls after approx. 10 d, 0 = no effect, 100 = complete control, read-out: Ragweed plant response rating (0 to 100 scale); for pest or weed control at 31 g/ha: Postemergence, 31 g ai/ha, visual injury after approx. 10 d, 0 to 100 scale, 0 no effect, 100 complete control, read-out: Plant response rating, Ragweed
How it was run: (§1)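 Seeded soil received test chemicals as a preemergence directed spray, and seedlings at one to two leaves, 2–10 cm tall, received them postemergence, in a non-phytotoxic, surfactant-containing solvent mixture. Pots were held in a greenhouse for approximately 10 d, then rated for injury from 0, no effect, to 100, complete control.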

[2] = system: barnyardgrass (Echinochloa crus-galli); assay: Test A postemergence; details: Echinochloa crus-galli, post-emergence, 240 h; for pest or weed control at 125 g/ha: 125 g ai/ha, postemergence, visual injury on 0 to 100 scale (0 no effect, 100 complete control), approx. 10 d, read-out: Barnyardgrass plant response rating; for pest or weed control at 31 g/ha: Postemergence, 31 g ai/ha, visual injury after approx. 10 d, 0 to 100 scale, 0 no effect, 100 complete control, read-out: Plant response rating, Barnyardgrass
How it was run: as §1

[3] = system: corn (Zea mays); assay: Test A postemergence; details: Zea mays, post-emergence, 240 h; for plant injury at 125 g/ha: 125 g ai/ha, postemergence, visual injury on 0 to 100 scale (0 no effect, 100 complete control), approx. 10 d, read-out: Corn plant response rating; for Corn plant response rating (crop injury, 0 = no effect, 100 = complete kill) at 31 g/ha: Postemergence, 31 g ai/ha, visual injury after approx. 10 d, 0 to 100 scale, 100 complete control
How it was run: as §1

[4] = system: giant foxtail (Setaria faberii); assay: Test A postemergence; details: Setaria faberi, post-emergence, 240 h; for pest or weed control at 125 g/ha: 125 g ai/ha, postemergence, visual injury on 0 to 100 scale (0 no effect, 100 complete control), approx. 10 d, read-out: Foxtail, Giant plant response rating; for pest or weed control at 31 g/ha: Postemergence, 31 g ai/ha, visual injury after approx. 10 d, 0 to 100 scale, 0 no effect, 100 complete control, read-out: Plant response rating, Foxtail, Giant
How it was run: as §1

[5] = system: Galium (catchweed bedstraw, Galium aparine); assay: Test A postemergence; details: Galium, post-emergence, 240 h; for pest or weed control at 125 g/ha: 125 g ai/ha, postemergence, visual injury on 0 to 100 scale (0 no effect, 100 complete control), approx. 10 d, read-out: Galium plant response rating; for pest or weed control at 31 g/ha: Postemergence, 31 g ai/ha, visual injury after approx. 10 d, 0 to 100 scale, 0 no effect, 100 complete control, read-out: Plant response rating, Galium
How it was run: as §1

[6] = system: pigweed (Amaranthus retroflexus); assay: Test A postemergence; details: Amaranthus retroflexus, post-emergence, 240 h; for pest or weed control at 125 g/ha: 125 g ai/ha, postemergence, visual injury vs untreated controls after approx. 10 d, 0 = no effect, 100 = complete control, read-out: Pigweed plant response rating (0 to 100 scale); for pest or weed control at 31 g/ha: Postemergence, 31 g ai/ha, visual injury after approx. 10 d, 0 to 100 scale, 0 no effect, 100 complete control, read-out: Plant response rating, Pigweed
How it was run: as §1

[7] = system: ryegrass, Italian (Italian ryegrass, Lolium multiflorum); assay: Test A postemergence; details: Lolium multiflorum, post-emergence, 240 h; for pest or weed control at 125 g/ha: 125 g ai/ha, postemergence, visual injury vs untreated controls after approx. 10 d, 0 = no effect, 100 = complete control, read-out: Ryegrass, Italian plant response rating (0 to 100 scale); for pest or weed control at 31 g/ha: Postemergence, 31 g ai/ha, visual injury after approx. 10 d, 0 to 100 scale, 0 no effect, 100 complete control, read-out: Plant response rating, Ryegrass, Italian
How it was run: as §1

[8] = system: Kochia (Kochia scoparia); assay: Test A postemergence; details: Bassia scoparia, post-emergence, 240 h; for pest or weed control at 125 g/ha: 125 g ai/ha, postemergence, visual injury on 0 to 100 scale (0 no effect, 100 complete control), approx. 10 d, read-out: Kochia plant response rating; for pest or weed control at 31 g/ha: Postemergence, 31 g ai/ha, visual injury after approx. 10 d, 0 to 100 scale, 0 no effect, 100 complete control, read-out: Plant response rating, Kochia
How it was run: as §1

[9] = system: wheat (Triticum aestivum); assay: Test A postemergence; details: Triticum aestivum, post-emergence, 240 h; for plant injury at 125 g/ha: 125 g ai/ha, postemergence, visual injury vs untreated controls after approx. 10 d, 0 = no effect, 100 = complete control, read-out: Wheat plant response rating (0 to 100 scale); for plant injury at 31 g/ha: Postemergence, 31 g ai/ha, visual injury after approx. 10 d, 0 to 100 scale, 0 no effect, 100 complete control, read-out: Plant response rating, Wheat
How it was run: as §1

[10] = system: blackgrass (Alopecurus myosuroides); assay: Test A postemergence; details: Alopecurus myosuroides, post-emergence, 240 h; for pest or weed control at 125 g/ha: 125 g ai/ha, postemergence, visual injury on 0 to 100 scale (0 no effect, 100 complete control), approx. 10 d, read-out: Blackgrass plant response rating; for pest or weed control at 31 g/ha: Postemergence, 31 g ai/ha, visual injury after approx. 10 d, 0 to 100 scale, 0 no effect, 100 complete control, read-out: Plant response rating, Blackgrass
How it was run: as §1

[11] = system: ducksalad (Heteranthera limosa); assay: Test B flooded paddy test; details: Heteranthera limosa, 250 g ai/ha, Flood; 0 to 100 scale where 0 is no effect and 100 is complete control; read-out: Ducksalad plant response rating
How it was run: (§2)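 Plants at 2-leaf stage flooded to 3 cm above soil, with compounds applied directly to paddy water and that depth maintained. Plants kept in greenhouse 13–15 d. Visual rating versus controls on a 0 (no effect) to 100 (complete control) scale.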

[12] = system: barnyardgrass (Echinochloa crus-galli); assay: Test B flooded paddy test; details: Echinochloa crus-galli, 250 g ai/ha, Flood; 0 to 100 scale where 0 is no effect and 100 is complete control; read-out: Barnyardgrass plant response rating
How it was run: as §2

[13] = system: rice (Oryra sativa); assay: Test B flooded paddy test; details: Oryza sativa, 250 g ai/ha, Flood; 0 to 100 scale where 0 is no effect and 100 is complete control; read-out: Rice plant response rating
How it was run: as §2

[14] = system: sedge, umbrella (small-flower umbrella sedge, Cyperus difformis); assay: Test B flooded paddy test; details: Cyperus difformis, 250 g ai/ha, Flood; 0 to 100 scale where 0 is no effect and 100 is complete control; read-out: Sedge, Umbrella plant response rating
How it was run: as §2

[15] = system: ragweed (common ragweed, Ambrosia elatior); assay: Test A preemergence; details: Ambrosia artemisiifolia, pre-emergence, 240 h, 0 to 100 scale where 0 is no effect and 100 is complete control, read-out: Ragweed plant response rating; for pest or weed control at 31 g/ha: 31 g ai/ha, Preemergence; for pest or weed control at 125 g/ha: 125 g ai/ha, preemergence, approx. 10 d
How it was run: as §1

[16] = system: barnyardgrass (Echinochloa crus-galli); assay: Test A preemergence; details: Echinochloa crus-galli, pre-emergence, 240 h, 0 to 100 scale where 0 is no effect and 100 is complete control, read-out: Barnyardgrass plant response rating; for pest or weed control at 31 g/ha: 31 g ai/ha, Preemergence; for pest or weed control at 125 g/ha: 125 g ai/ha, preemergence, approx. 10 d
How it was run: as §1

[17] = system: giant foxtail (Setaria faberii); assay: Test A preemergence; details: Setaria faberi, pre-emergence, 240 h, 0 to 100 scale where 0 is no effect and 100 is complete control, read-out: Foxtail, Giant plant response rating; for pest or weed control at 31 g/ha: 31 g ai/ha, Preemergence; for pest or weed control at 125 g/ha: 125 g ai/ha, preemergence, approx. 10 d
How it was run: as §1

[18] = system: pigweed (Amaranthus retroflexus); assay: Test A preemergence; details: Amaranthus retroflexus, pre-emergence, 240 h, 0 to 100 scale where 0 is no effect and 100 is complete control, read-out: Pigweed plant response rating; for pest or weed control at 31 g/ha: 31 g ai/ha, Preemergence; for pest or weed control at 125 g/ha: 125 g ai/ha, preemergence, approx. 10 d
[19] = system: ryegrass, Italian (Italian ryegrass, Lolium multiflorum); assay: Test A preemergence; details: Lolium multiflorum, pre-emergence, 240 h, 0 to 100 scale where 0 is no effect and 100 is complete control, read-out: Ryegrass, Italian plant response rating; for pest or weed control at 31 g/ha: 31 g ai/ha, Preemergence; for pest or weed control at 125 g/ha: 125 g ai/ha, preemergence, approx. 10 d
How it was run: as §1

[20] = system: Kochia (Kochia scoparia); assay: Test A preemergence; details: Bassia scoparia, pre-emergence, 240 h, 0 to 100 scale where 0 is no effect and 100 is complete control, read-out: Kochia plant response rating; for pest or weed control at 31 g/ha: 31 g ai/ha, Preemergence; for pest or weed control at 125 g/ha: 125 g ai/ha, preemergence, approx. 10 d
How it was run: as §1

SMILES | pest or weed control at 125 g/ha [1] [%] | pest or weed control at 31 g/ha [1] [%] | pest or weed control at 125 g/ha [2] [%] | pest or weed control at 31 g/ha [2] [%] | plant injury at 125 g/ha [3] [%] | Corn plant response rating (crop injury, 0 = no effect, 100 = complete kill) at 31 g/ha [3] [%] | pest or weed control at 125 g/ha [4] [%] | pest or weed control at 31 g/ha [4] [%] | pest or weed control at 125 g/ha [5] [%] | pest or weed control at 31 g/ha [5] [%] | pest or weed control at 125 g/ha [6] [%] | pest or weed control at 31 g/ha [6] [%] | pest or weed control at 125 g/ha [7] [%] | pest or weed control at 31 g/ha [7] [%] | pest or weed control at 125 g/ha [8] [%] | pest or weed control at 31 g/ha [8] [%] | plant injury at 125 g/ha [9] [%] | plant injury at 31 g/ha [9] [%] | pest or weed control at 125 g/ha [10] [%] | pest or weed control at 31 g/ha [10] [%] | also measured
CC(O)c1ccccc1NC(=O)C1C(=O)N(C)CC1c1cccc(C(F)(F)F)c1 (stereo not drawn) [Compound 1147] | 0 | 0 | 0 | 0 | 0 | 0 | 0 | 0 | 0 | 0 | 0 | 0 | 0 | 0 | 0 | 0 | 0 | 0 | 0 | 0 | pest or weed control at 250 g/ha [11]: 0%; pest or weed control at 250 g/ha [12]: 0%; pest or weed control at 250 g/ha [13]: 15%; pest or weed control at 250 g/ha [14]: 0%; pest or weed control at 31 g/ha [15]: 0%; pest or weed control at 125 g/ha [15]: 0%; pest or weed control at 31 g/ha [16]: 0%; pest or weed control at 125 g/ha [16]: 20%; pest or weed control at 31 g/ha [17]: 0%; pest or weed control at 125 g/ha [17]: 20%; pest or weed control at 31 g/ha [18]: 0%; pest or weed control at 125 g/ha [18]: 0%; pest or weed control at 31 g/ha [19]: 0%; pest or weed control at 125 g/ha [19]: 0%; pest or weed control at 31 g/ha [20]: 0%; pest or weed control at 125 g/ha [20]: 0%
C=C(C)c1ccc([C@H]2CN(C)C(=O)[C@@H]2C(=O)Nc2ccc(F)c(F)c2F)cc1 [Compound 1148] | 0 | 0 | 80 | 50 | 0 | 0 | 80 | 50 | 40 | 0 | 20 | 0 | 0 | 0 | 0 | 0 | 0 | 0 | 20 | 0 | pest or weed control at 250 g/ha [11]: 70%; pest or weed control at 250 g/ha [12]: 50%; pest or weed control at 250 g/ha [13]: 60%; pest or weed control at 250 g/ha [14]: 0%; pest or weed control at 31 g/ha [15]: 0%; pest or weed control at 125 g/ha [15]: 0%; pest or weed control at 31 g/ha [16]: 30%; pest or weed control at 125 g/ha [16]: 90%; pest or weed control at 31 g/ha [17]: 90%; pest or weed control at 125 g/ha [17]: 90%; pest or weed control at 31 g/ha [18]: 0%; pest or weed control at 125 g/ha [18]: 0%; pest or weed control at 31 g/ha [19]: 0%; pest or weed control at 125 g/ha [19]: 20%; pest or weed control at 31 g/ha [20]: 0%; pest or weed control at 125 g/ha [20]: 0%
